{"source": "patent US20120283293A1", "about": "“Methods of neuroprotection involving Prostaglandin E2 EP4 (PGE2 EP4) receptor activation” (The Board of Trustees of the Leland Stanford Junior …, priority 2011, published 2012)", "test_system": "hippocampus of LPS-treated mice", "test": "LPS-induced hippocampal pro-inflammatory gene response in mice (qPCR, microglial morphology)", "type": "in vivo, mouse", "method": "The murine in vivo studies were conducted in accordance with the National Institutes of Health guidelines for the use of experimental animals and protocols were approved by the Institutional Animal Care and Use Committee. C57B6 EP4 floxed mice (Schneider et al., 2004) were kindly provided by Drs. Richard and Matthew Breyer (Vanderbilt University School of Medicine, Nashville, Tenn.), and C57B6 Cd11bCre mice (Boillee et al., 2006) were kindly provided by Dr. G. Kollias (Alexander Fleming Biomedical Sciences Research Center, Vari, Greece) and Dr. Donald Cleveland (UCSD, San Diego, Calif.). All mice were housed in an environment controlled for lighting (12 hour light/dark cycle), temperature, and humidity, with food and water available ad libitum. Cd11bCre:EP4f/f and Cd11bCre:EP4+/+ mice were generated by serial crosses of C57B6 Cd11bCre and EP4f/f and EP4+/+ lines. Male Cd11bCre: EP4f/f and Cd11bCre: EP4+/+ mice were treated with either saline or LPS (5 mg/kg intraperitoneally: n=5-8 per group, 13 months of age). 24 hours after injection, mice were euthanized and brain tissue was harvested and frozen at −80° C. For pharmacological experiments, C57B6 male mice (Jackson Laboratories, Bar Harbor, Me.; n=7 or 8 per group) received an injection of saline or LPS (5 mg/kg, i.p.+/−vehicle or AE1-329 ([…]) (Qin et al., 2007; Nagamatsu et al., 2006). Mice were euthanized 6 hours later, and brain tissue was harvested and frozen at −80° C. For collection of plasma, C57B6 male mice (n=5 per group) received an injection of saline or LPS (5 mg/kg, i.p.)+/−AE1-329 ([…] s.c.) or vehicle. Mice were deeply anesthetized with isoflurane at 3 h and blood was collected in a 1-ml syringe pre-coated with EDTA (250 mM) and placed in EDTA coated tubes. […]\nqPCR was carried out as previously described (Liang et al., 2008). […] The mRNA level for each target gene was quantified by SYBR Green-based qPCR using the QuantiTect SYBR Green PCR kit (Qiagen). […] Quantification was performed using the standard curve method. […]", "key": {"[1]": {"details": "mice, LPS 5 mg/kg i.p., AE1-329 300 μg/kg s.c., 6 hours"}}, "data": [{"molecule": "COCc1ccccc1CC[C@H](O)/C=C/[C@H]1[C@H](O)CC(=O)[C@@H]1SCCCSCC(=O)O", "note": "[AE1-329]", "values": [{"measurement": "LPS-induced COX-2, iNOS, TNF-α, IL-6 and IL-1β mRNA levels in hippocampus", "setting": "[1]", "result": "significantly attenuated"}, {"measurement": "hippocampal expression of NADPH oxidase subunits gp91phox, p67phox and p47phox", "setting": "[1]", "result": "trend toward decreased expression"}, {"measurement": "microglial morphological changes in response to LPS (Iba1 staining)", "setting": "mouse hippocampal CA1, 6 hours after LPS + AE1-329", "result": "modestly decreased"}]}]}
